Experimental data: US9895338B1, “Cobalt-polypyridyl complex for treatment of cancer, a pharmaceutical composition and a kit comprising it” (Macau University of Science and Technology, priority 2016, dated 2018)

How the values were obtained:
[1] = system: OV2008/C13 cervical cancer cells; assay: MTT cytotoxicity, OV2008/C13 (cisplatin-resistant); format: cell-based
Description: (§1) All prepared cobalt-polypyridyl complexes were dissolved in DMSO at a final concentration of 50 mmol/L and stored at −20° C. before use. Cytotoxicity was assessed by using the 3-(4,5-dimethylthiazol-2-yl)-2,5-diphenyltetrazolium bromide (MTT) (5.0 mg/ml) assay as previously described (Wong, V. K. et al., Cell Death Dis, 2013, 4, e720). Briefly, 4×10^3 cells per well were seeded in 96-well plates before drug treatments. After overnight culture, the cells were then exposed to different concentrations of selected compounds (0.039-100 μmol/L) for 72 h. Cells without drug treatment were used as control. Subsequently, MTT (10 μL) solution was added to each well and incubated at 37° C. for 4 h followed by the addition of 100 μL solubilization buffer (10% SDS in 0.01 mol/L HCl) and overnight incubation. A570 nm was then determined in each well on the next day. The percentage of cell viability was calculated using the following formula: Cell viability (%)=Atreated/Acontrol×100. Data were obtained from three independent experiments.
(§2) Cisplatin-sensitive or -resistant A2780, OV2008 and C13 cancer cells were provided by Prof. Benjamin Tsang (Department of Obstetrics and Gynecology and Department of Cellular and Molecular Medicine, University of Ottawa, Canada). HCT116 p53^+/+ and p53^−/− isogenic human colon cancer cells were provided by Professor Bert Vogelstein (Ludwig Center at Johns Hopkins, Howard Hughes Medical Institute, USA). All media were supplemented with 10% fetal bovine serum and the antibiotics penicillin (50 U/ml) and streptomycin (50 μg/ml; Invitrogen, Paisley, Scotland, UK). All cell cultures were incubated at 37° C. in a 5% humidified CO2 incubator.

HepG2 (liver cancer) = assay: MTT cytotoxicity assay, HepG2; format: cell-based; settings: 72 h
Description: as §1, with “experiments. Cells include HeLa cells (cervical cancer), MCF-7 (breast cancer), H1299, H1975, A549 and LLC-1 (lung cancer), HepG2 and Hep3B (liver cancer) and LO2 (normal human hepatocytes).” for “experiments.”

[2] = system: cisplatin-sensitive A2780 ovarian cancer cells; assay: MTT cytotoxicity, cisplatin-sensitive A2780; format: cell-based; settings: 72 h
Description: as §1, §2

Atg7 wild-type MEFs = assay: Cytotoxic effect in Atg7 wild-type MEFs; format: cell-based, mouse
From the text: (§3) All cells were obtained from the American Type Culture Collection (Rockville, Md., USA) unless otherwise specified. Immortalized wild-type and Atg7-deficient mouse embryonic fibroblasts (MEFs) were provided by Professor Masaaki Komatsu (Juntendo University, School of Medicine, Japan). Taxol-resistant types of A549, MCF-7, HCT-8 cancer cells, cisplatin-resistant SGC7901 cancer cells were purchased from KeyGEN BioTECH, China.
(§4) In addition, the protein conversion from LC3-I to LC3-II is the marker for autophagy induction. […] In order to further confirm that the cobalt complex-induced autophagy leads to its anti-cancer effect, the cytotoxic effect of the cobalt-polypyridyl complex of Formula (IV) has been examined in both autophagy-wild type and -deficient cells respectively. Therefore, both autophagy related gene (Atg) 7 wild-type and deficient mouse embryonic fibroblasts (MEFs) (Wong, V. K. et al., Cell Death Dis, 2013, 4, e720) were used in this study. […] In view of the fact that the cobalt-polypyridyl complex of Formula (IV)-mediated cytotoxicity was markedly abrogated from the failure of autophagy induction in Atg7−/− deficient cells, these findings implicated that the cobalt-polypyridyl complex of Formula (IV)-induced autophagy would ultimately led to autophagic cell death.

Hep 3B (liver cancer) = assay: MTT cytotoxicity assay, Hep3B; format: cell-based; settings: 72 h
Description: as §1, with “experiments. Cells include HeLa cells (cervical cancer), MCF-7 (breast cancer), H1299, H1975, A549 and LLC-1 (lung cancer), HepG2 and Hep3B (liver cancer) and LO2 (normal human hepatocytes).” for “experiments.”

[3] = system: LO2 (normal human hepatocytes); assay: MTT cytotoxicity assay, LO2; format: cell-based; settings: 72 h
Description: as §1, with “experiments. Cells include HeLa cells (cervical cancer), MCF-7 (breast cancer), H1299, H1975, A549 and LLC-1 (lung cancer), HepG2 and Hep3B (liver cancer) and LO2 (normal human hepatocytes).” for “experiments.”

H1299 (lung cancer) = assay: MTT cytotoxicity assay, H1299; format: cell-based, human; settings: 72 h
Description: as §1, with “experiments. Cells include HeLa cells (cervical cancer), MCF-7 (breast cancer), H1299, H1975, A549 and LLC-1 (lung cancer), HepG2 and Hep3B (liver cancer) and LO2 (normal human hepatocytes).” for “experiments.”

[4] = system: cisplatin-resistant SGC-7901 gastric cancer cells; assay: MTT cytotoxicity, cisplatin-resistant SGC-7901; format: cell-based
Description: as §1, §3

[5] = system: HCT116 p53^+/+ colon cancer cells; assay: MTT cytotoxicity, HCT116 p53+/+; format: cell-based, human; settings: 72 h
Description: as §1, §2

[6] = system: Taxol-resistant MCF-7 cancer cells; assay: MTT cytotoxicity, taxol-resistant MCF-7; format: cell-based
Description: as §1, §3

Atg7 deficient MEFs = assay: Cytotoxic effect in Atg7 deficient MEFs; format: cell-based, mouse
From the text: as §3, §4

[7] = system: Taxol-sensitive HCT8 cancer cells; assay: MTT cytotoxicity, taxol-sensitive HCT8; format: cell-based; settings: 72 h
Description: as §1

[8] = system: OV2008 cervical cancer cells; assay: MTT cytotoxicity, OV2008 (cisplatin-sensitive); format: cell-based; settings: 72 h
Description: as §1, §2

[9] = system: Taxol-resistant HCT8 cancer cells; assay: MTT cytotoxicity, taxol-resistant HCT8; format: cell-based
Description: as §1, §3

LLC-1 (lung cancer) = assay: MTT cytotoxicity assay, LLC-1; format: cell-based; settings: LLC-1, MTT, 72 h
Description: as §1, with “experiments. Cells include HeLa cells (cervical cancer), MCF-7 (breast cancer), H1299, H1975, A549 and LLC-1 (lung cancer), HepG2 and Hep3B (liver cancer) and LO2 (normal human hepatocytes).” for “experiments.”

A549 (lung cancer) = assay: MTT cytotoxicity assay, A549; format: cell-based; settings: 72 h
Description: as §1, with “experiments. Cells include HeLa cells (cervical cancer), MCF-7 (breast cancer), H1299, H1975, A549 and LLC-1 (lung cancer), HepG2 and Hep3B (liver cancer) and LO2 (normal human hepatocytes).” for “experiments.”

[10] = system: Taxol-sensitive MCF-7 cancer cells; assay: MTT cytotoxicity, taxol-sensitive MCF-7; format: cell-based; settings: MCF-7, MTT, 72 h
Description: as §1

[11] = system: Taxol-resistant A549 cancer cells; assay: MTT cytotoxicity, taxol-resistant A549; format: cell-based
Description: as §1, §3

[12] = system: HCT116 p53^−/− colon cancer cells; assay: MTT cytotoxicity, HCT116 p53-/-; format: cell-based, human
Description: as §1, §2

[13] = system: cisplatin-resistant A2780 ovarian cancer cells; assay: MTT cytotoxicity, cisplatin-resistant A2780; format: cell-based
Description: as §1, §2

[14] = system: Taxol-sensitive A549 cancer cells; assay: MTT cytotoxicity, taxol-sensitive A549; format: cell-based; settings: 72 h
Description: as §1

H1975 (lung cancer) = assay: MTT cytotoxicity assay, H1975; format: cell-based; settings: 72 h
Description: as §1, with “experiments. Cells include HeLa cells (cervical cancer), MCF-7 (breast cancer), H1299, H1975, A549 and LLC-1 (lung cancer), HepG2 and Hep3B (liver cancer) and LO2 (normal human hepatocytes).” for “experiments.”

MCF-7 (breast cancer) = assay: MTT cytotoxicity assay, MCF-7; format: cell-based; settings: MCF-7, MTT, 72 h
Description: as §1, with “experiments. Cells include HeLa cells (cervical cancer), MCF-7 (breast cancer), H1299, H1975, A549 and LLC-1 (lung cancer), HepG2 and Hep3B (liver cancer) and LO2 (normal human hepatocytes).” for “experiments.”

[15] = system: cisplatin-sensitive SGC-7901 gastric cancer cells; assay: MTT cytotoxicity, cisplatin-sensitive SGC-7901; format: cell-based; settings: SGC-7901, MTT, 72 h
Description: as §1

[16] = system: HeLa cells (cervical cancer); assay: MTT cytotoxicity assay, HeLa; format: cell-based; settings: 72 h
Description: as §1, with “experiments. Cells include HeLa cells (cervical cancer), MCF-7 (breast cancer), H1299, H1975, A549 and LLC-1 (lung cancer), HepG2 and Hep3B (liver cancer) and LO2 (normal human hepatocytes).” for “experiments.”

Substance: [Co^II(4,4′-Me2-Bpy)3](PF6)2 [complex (III)]
- IC50 ([1]; OV2008/C13, MTT, 72 h): 15.6 µM
- Resistant Factor ([1]; OV2008/C13 over OV2008): 2.21
- IC50 (HepG2 (liver cancer)): 7.39 µM
- IC50 [2]: 11.9 µM
- IC50 (Atg7 wild-type MEFs): 4.84 µM
- IC50 (Hep 3B (liver cancer)): 4.06 µM
- IC50 [3]: 13.5 µM
- IC50 (H1299 (lung cancer)): 3.43 µM
- IC50 ([4]; SGC-7901, MTT, 72 h): 17.6 µM
- Resistant Factor ([4]; SGC-7901, cisplatin-resistant over cisplatin-sensitive): 1.50
- IC50 [5]: 17.1 µM
- IC50 ([6]; MCF-7, MTT, 72 h): 2510 nM
- Resistant Factor ([6]; MCF-7, IC50 taxol-resistant over IC50 taxol-sensitive): 0.54
- IC50 (Atg7 deficient MEFs): 14 µM
- IC50 [7]: 3.13 µM
- IC50 [8]: 7.06 µM
- IC50 ([9]; HCT8, MTT, 72 h): 1160 nM
- Resistant Factor ([9]; HCT8, IC50 taxol-resistant over IC50 taxol-sensitive): 0.37
- IC50 (LLC-1 (lung cancer)): 2790 nM
- IC50 (A549 (lung cancer)): 9.45 µM
- IC50 [10]: 4.62 µM
- IC50 ([11]; A549, MTT, 72 h): 2370 nM
- Resistant Factor ([11]; A549, IC50 taxol-resistant over IC50 taxol-sensitive): 0.25
- Resistant Factor ([12]; HCT116 p53^−/− over HCT116 p53^+/+): 0.52
- IC50 ([12]; MTT, 72 h): 8.89 µM
- IC50 ([13]; A2780, MTT, 72 h): 11.2 µM
- Resistant Factor ([13]; A2780, cisplatin-resistant over cisplatin-sensitive): 0.94
- IC50 [14]: 9.59 µM
- IC50 (H1975 (lung cancer)): 15.4 µM
- IC50 (MCF-7 (breast cancer)): 15.4 µM
- IC50 [15]: 11.7 µM
- IC50 [16]: 10.1 µM
